Assay results as given in patent US20260001928A1 (CORTERIA PHARMACEUTICALS, priority 2022, published 2026).
*1 amine or outer side, *2 acyl side, *3 side chain or, on linkers, in order; H or OH if unused. Where a SMILES comes first, the peptide text is derived from it. Side-chain parts run from the residue outwards. [ ]: non-standard residue; d: D form. The star is where a group is joined. C18 diacid = O=C(O)CCCCCCCCCCCCCCCCC(=O)*; γGlu = O=C(O)[C@H](CCC(=O)[*:2])N[*:1]; NMeI = CC[C@H](C)[C@H](NC)C(=O)O; Ac6c = NC1(C(=O)O)CCCCC1; Ac5c = NC1(C(=O)O)CCCC1; Aib = CC(C)(N)C(=O)O

Columns and labels:
[1] = target: T1, human CRF2a receptor (Homo sapiens, UniProt Q13324); assay: Activity at human CRF2a receptor, cAMP functional assay in TeloHEAC cells; type: cell-based; details: TeloHEAC cells stably expressing human CRF2a receptor, relative to urocortin 2 (100 nM = 100%)
T1 construct: expressed in transfected cells; host or cells: TeloHEAC cells
T1 sequence (Q13324 1-411): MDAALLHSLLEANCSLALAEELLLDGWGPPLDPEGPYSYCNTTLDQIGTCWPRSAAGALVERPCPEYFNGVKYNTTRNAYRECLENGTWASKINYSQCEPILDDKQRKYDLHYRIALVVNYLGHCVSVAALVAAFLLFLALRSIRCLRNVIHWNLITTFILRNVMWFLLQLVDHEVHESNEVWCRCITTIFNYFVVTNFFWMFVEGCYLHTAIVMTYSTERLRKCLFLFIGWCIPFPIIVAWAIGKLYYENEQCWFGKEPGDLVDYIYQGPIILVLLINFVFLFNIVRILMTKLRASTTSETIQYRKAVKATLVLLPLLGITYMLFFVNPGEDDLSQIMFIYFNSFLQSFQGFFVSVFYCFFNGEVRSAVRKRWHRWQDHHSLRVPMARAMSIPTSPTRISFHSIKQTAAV
Method in brief: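 TeloHEAC cells stably expressing human CRF2a (10000 cells/well, suspended in HBSS/20 mM HEPES with 2 mM IBMX) were exposed to compounds for 30 min at 37 °C. cAMP was read as the 665/620 nm fluorescence ratio after 1 h at room temperature. EC50 was derived relative to 100 nM urocortin 2, set as 100%.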

[2] = target: T2, CFR1R receptor (Homo sapiens, UniProt P34998); assay: Activity at anti-target CFR1R receptor, cAMP assay in CRF1R-overexpression CHO-K1 cells; type: cell-based; details: 100% = Sauvagine at 100 nM; for EC50: cAMP
T2 construct: host or cells: CHO-K1 (clone 2)
T2 sequence (P34998 24-415): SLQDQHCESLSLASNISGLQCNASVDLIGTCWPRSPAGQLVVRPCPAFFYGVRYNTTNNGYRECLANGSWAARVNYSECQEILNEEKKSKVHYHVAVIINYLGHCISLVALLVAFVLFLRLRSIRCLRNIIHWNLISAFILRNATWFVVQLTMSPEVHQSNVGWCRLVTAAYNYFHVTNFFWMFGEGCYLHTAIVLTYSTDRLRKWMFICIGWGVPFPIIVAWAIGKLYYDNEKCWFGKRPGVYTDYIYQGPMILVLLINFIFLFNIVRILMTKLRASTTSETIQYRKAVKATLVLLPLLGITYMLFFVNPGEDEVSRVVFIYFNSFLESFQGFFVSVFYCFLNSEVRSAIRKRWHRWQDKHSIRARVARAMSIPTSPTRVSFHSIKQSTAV
Method in brief: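 Uses frozen stocks of CHO-K1 clone 2 cells overexpressing human CRF1R, plated at 4000 cells/well final, with cAMP measured by the same protocol as the TeloHAEC line. Full-activation control: 100 nM Sauvagine.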

| EC50 [1] | Emax (% I) [2] | EC50 [2] | SMILES |
| --- | --- | --- | --- |
| 0.5 nM | 10 % I | > 250 nM | CC[C@H](C)[C@H](NC(C)=O)C(=O)N[C@H](C(=O)N[C@@H](CC(C)C)C(=O)N[C@@H](CO)C(=O)N[C@@H](CC(C)C)C(=O)N[C@@H](CC(=O)O)C(=O)N[C@@H](C(=O)N1CCC[C@H]1C(=O)N[C@H](C(=O)N[C@@H](CCCCN)C(=O)N[C@@H](CC(C)C)C(=O)N[C@@H](CCCCNC(=O)CC[C@H](NC(=O)CCCCCCCCCCCCCCCCC(=O)O)C(=O)O)C(=O)N[C@@H](CCCCN)C(=O)N[C@H](C(=O)N[C@@H](CC(C)C)C(=O)N[C@@H](CC(C)C)C(=O)N[C@@H](CCC(=O)O)C(=O)N[C@@H](CCC(N)=O)C(=O)N[C@@H](CCC(=O)O)C(=O)N[C@@H](CCCCN)C(=O)N[C@@H](CCC(N)=O)C(=O)N[C@@H](CCCCN)C(=O)N[C@@H](CCCCN)C(=O)N[C@@H](CCC(N)=O)C(=O)N[C@@H](CCCNC(=N)N)C(=O)N[C@@H](CCC(=O)O)C(=O)N[C@@H](CCC(N)=O)C(=O)N[C@@H](C)C(=O)N[C@@H](CCC(=O)O)C(=O)N[C@H](C(=O)N[C@@H](CC(N)=O)C(=O)NC1(C(=O)N[C@@H](CCC(N)=O)C(=O)N[C@H](C(=O)N[C@@H](CC(C)C)C(=O)N[C@@H](C)C(=O)N[C@@H](CCC(N)=O)C(=O)N[C@H](C(N)=O)C(C)C)[C@@H](C)CC)CCCCC1)[C@@H](C)O)[C@@H](C)CC)[C@@H](C)CC)C(C)C)C(C)C [compound 134] (Ac-IVLSLD[dV]PIKLK([γGlu-C18 diacid])KILLEQEKQKKQREQAETN[Ac6c]QILAQV-NH2) |
| 0.19 nM | 15 % I | > 250 nM | CC[C@H](C)[C@H](NC(C)=O)C(=O)N[C@H](C(=O)N[C@@H](CC(C)C)C(=O)N[C@@H](CO)C(=O)N[C@@H](CC(C)C)C(=O)N[C@@H](CC(=O)O)C(=O)N[C@@H](C(=O)N1CCC[C@H]1C(=O)N[C@H](C(=O)N[C@@H](CCCCN)C(=O)N[C@@H](CC(C)C)C(=O)N[C@@H](CCCCNC(=O)CC[C@H](NC(=O)CCCCCCCCCCCCCCCCC(=O)O)C(=O)O)C(=O)N[C@@H](CCCCN)C(=O)N[C@H](C(=O)N[C@@H](CC(C)C)C(=O)N[C@@H](CC(C)C)C(=O)N[C@@H](CCC(=O)O)C(=O)N[C@@H](CCC(N)=O)C(=O)N[C@@H](CCC(=O)O)C(=O)N[C@@H](CCCCN)C(=O)N[C@@H](CCC(N)=O)C(=O)N[C@@H](CCCCN)C(=O)N[C@@H](CCCCN)C(=O)N[C@@H](CCC(N)=O)C(=O)N[C@@H](CCCNC(=N)N)C(=O)N[C@@H](CCC(=O)O)C(=O)N[C@@H](CCC(N)=O)C(=O)N[C@@H](C)C(=O)N[C@@H](CCC(=O)O)C(=O)N[C@H](C(=O)N[C@@H](CC(N)=O)C(=O)NC1(C(=O)N[C@@H](CCC(N)=O)C(=O)N[C@H](C(=O)N[C@@H](CC(C)C)C(=O)N[C@@H](C)C(=O)N[C@@H](CCC(N)=O)C(=O)N[C@H](C(N)=O)C(C)C)[C@@H](C)CC)CCCC1)[C@@H](C)O)[C@@H](C)CC)[C@@H](C)CC)C(C)C)C(C)C [compound 135] (Ac-IVLSLD[dV]PIKLK([γGlu-C18 diacid])KILLEQEKQKKQREQAETN[Ac5c]QILAQV-NH2) |

The remaining lines, values behind:

| SMILES | EC50 [1] | Emax (% I) [2] | EC50 [2] |
| --- | --- | --- | --- |
| CC[C@H](C)[C@H](NC(C)=O)C(=O)N[C@H](C(=O)N[C@@H](CC(C)C)C(=O)N[C@@H](CO)C(=O)N[C@@H](CC(C)C)C(=O)N[C@@H](CC(=O)O)C(=O)N[C@@H](C(=O)N1CCC[C@H]1C(=O)N[C@H](C(=O)N[C@@H](CCCCN)C(=O)N[C@@H](CC(C)C)C(=O)N[C@@H](CCCCNC(=O)CC[C@H](NC(=O)CCCCCCCCCCCCCCCCC(=O)O)C(=O)O)C(=O)N[C@@H](CCCCN)C(=O)N[C@H](C(=O)N[C@@H](CC(C)C)C(=O)N[C@@H](CC(C)C)C(=O)N[C@@H](CCC(=O)O)C(=O)N[C@@H](CCC(N)=O)C(=O)N[C@@H](CCC(=O)O)C(=O)N[C@@H](CCCCN)C(=O)N[C@@H](CCC(N)=O)C(=O)N[C@@H](CCCCN)C(=O)N[C@@H](CCCCN)C(=O)N[C@@H](CCC(N)=O)C(=O)N[C@@H](CCCNC(=N)N)C(=O)N[C@@H](CCC(=O)O)C(=O)N[C@@H](CCC(N)=O)C(=O)N[C@@H](C)C(=O)N[C@@H](CCC(=O)O)C(=O)N[C@H](C(=O)N[C@@H](CC(N)=O)C(=O)N[C@@H](CCC(=O)O)C(=O)N[C@@H](CCC(N)=O)C(=O)N[C@H](C(=O)N[C@@H](CC(C)C)C(=O)N[C@@H](C)C(=O)N[C@@H](CCC(N)=O)C(=O)N[C@H](C(N)=O)C(C)C)[C@@H](C)CC)[C@@H](C)O)[C@@H](C)CC)[C@@H](C)CC)C(C)C)C(C)C [compound 130] (Ac-IVLSLD[dV]PIKLK([γGlu-C18 diacid])KILLEQEKQKKQREQAETNEQILAQV-NH2) | 0.08 nM | 4 % I | > 250 nM |
| CC[C@H](C)[C@H](NC)C(=O)N[C@H](C(=O)N[C@@H](CC(C)C)C(=O)N[C@@H](CO)C(=O)N[C@@H](CC(C)C)C(=O)N[C@@H](CC(=O)O)C(=O)N[C@@H](C(=O)N1CCC[C@H]1C(=O)N[C@H](C(=O)N[C@@H](CCCCN)C(=O)N[C@@H](CC(C)C)C(=O)N[C@@H](CCCCNC(=O)CC[C@H](NC(=O)CCCCCCCCCCCCCCCCC(=O)O)C(=O)O)C(=O)N[C@@H](CCCCN)C(=O)N[C@H](C(=O)N[C@@H](CC(C)C)C(=O)N[C@@H](CC(C)C)C(=O)N[C@@H](CCC(=O)O)C(=O)N[C@@H](CCC(N)=O)C(=O)N[C@@H](CCC(=O)O)C(=O)N[C@@H](CCCCN)C(=O)N[C@@H](CCC(N)=O)C(=O)N[C@@H](CCCCN)C(=O)N[C@@H](CCCCN)C(=O)N[C@@H](CCC(N)=O)C(=O)N[C@@H](CCCNC(=N)N)C(=O)N[C@@H](CCC(=O)O)C(=O)N[C@@H](CCC(N)=O)C(=O)N[C@@H](C)C(=O)N[C@@H](CCC(=O)O)C(=O)N[C@H](C(=O)N[C@@H](CC(N)=O)C(=O)NC(C)(C)C(=O)N[C@@H](CCC(N)=O)C(=O)N[C@H](C(=O)N[C@@H](CC(C)C)C(=O)N[C@@H](C)C(=O)N[C@@H](CCC(N)=O)C(=O)N[C@H](C(N)=O)C(C)C)[C@@H](C)CC)[C@@H](C)O)[C@@H](C)CC)[C@@H](C)CC)C(C)C)C(C)C [compound 137] (H-[NMeI]VLSLD[dV]PIKLK([γGlu-C18 diacid])KILLEQEKQKKQREQAETN[Aib]QILAQV-NH2) | 0.07 nM | 9 % I | > 250 nM |
| CC[C@H](C)[C@H](NC)C(=O)N[C@H](C(=O)N[C@@H](CC(C)C)C(=O)N[C@@H](CO)C(=O)N[C@@H](CC(C)C)C(=O)N[C@@H](CC(=O)O)C(=O)N[C@@H](C(=O)N1CCC[C@H]1C(=O)N[C@H](C(=O)N[C@@H](CCCCN)C(=O)N[C@@H](CC(C)C)C(=O)N[C@@H](CCCCNC(=O)CC[C@H](NC(=O)CCCCCCCCCCCCCCCCC(=O)O)C(=O)O)C(=O)N[C@@H](CCCCN)C(=O)N[C@H](C(=O)N[C@@H](CC(C)C)C(=O)N[C@@H](CC(C)C)C(=O)N[C@@H](CCC(=O)O)C(=O)N[C@@H](CCC(N)=O)C(=O)N[C@@H](CCC(=O)O)C(=O)N[C@@H](CCCCN)C(=O)N[C@@H](CCC(N)=O)C(=O)N[C@@H](CCCCN)C(=O)N[C@@H](CCCCN)C(=O)N[C@@H](CCC(N)=O)C(=O)N[C@@H](CCCNC(=N)N)C(=O)N[C@@H](CCC(=O)O)C(=O)N[C@@H](CCC(N)=O)C(=O)N[C@@H](C)C(=O)N[C@@H](CCC(=O)O)C(=O)N[C@H](C(=O)N[C@@H](CC(N)=O)C(=O)N[C@@H](C)C(=O)N[C@@H](CCC(N)=O)C(=O)N[C@H](C(=O)N[C@@H](CC(C)C)C(=O)N[C@@H](C)C(=O)N[C@@H](CCC(N)=O)C(=O)N[C@H](C(N)=O)C(C)C)[C@@H](C)CC)[C@@H](C)O)[C@@H](C)CC)[C@@H](C)CC)C(C)C)C(C)C [compound 138] (H-[NMeI]VLSLD[dV]PIKLK([γGlu-C18 diacid])KILLEQEKQKKQREQAETNAQILAQV-NH2) | 0.05 nM | 10 % I | > 250 nM |
